Laboratory results: the supplement of paper PMC10307832

Experiments:
Test in all cases: relative viability (nuclei count vs DMSO), 5 days (fraction); higher = more cells survive
LCLC-97TM1 = tested on: LCLC-97TM1
Summary of the method: (§1)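 Values are medians from duplicate plates. Each reflects relative viability, defined as the nuclei count of treated wells over that of vehicle wells. Lung cancer cell lines in 1536-well plates were pin-tool dosed one day after seeding with one drug alone or with a fixed anchor-drug dose plus five library-drug doses (not always all listed) in √10 steps, then fixed, stained and imaged at 4× after 5 days.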

HCC-78 = tested on: HCC-78
Summary of the method: as §1

NCI-H1666 = tested on: NCI-H1666
Summary of the method: as §1

HCC-15 = tested on: HCC-15
Summary of the method: as §1

NCI-H1651 = tested on: NCI-H1651
Summary of the method: as §1

BEN = tested on: BEN
Summary of the method: as §1

LK-2 = tested on: LK-2
Summary of the method: as §1

NCI-H322M = tested on: NCI-H322M
Summary of the method: as §1

NCI-H2087 = tested on: NCI-H2087
Summary of the method: as §1

LU99A = tested on: LU99A
Summary of the method: as §1

SK-MES-1 = tested on: SK-MES-1
Summary of the method: as §1

LC-2-ad = tested on: LC-2-ad
Summary of the method: as §1

NCI-H1944 = tested on: NCI-H1944
Summary of the method: as §1

NCI-H661 = tested on: NCI-H661
Summary of the method: as §1

ChaGo-K-1 = tested on: ChaGo-K-1
Summary of the method: as §1

LXF-289 = tested on: LXF-289
Summary of the method: as §1

NCI-H650 = tested on: NCI-H650
Summary of the method: as §1

NCI-H358 = tested on: NCI-H358
Summary of the method: as §1

NCI-H2342 = tested on: NCI-H2342
Summary of the method: as §1

NCI-H838 = tested on: NCI-H838
Summary of the method: as §1

PC-3 [JPC-3] = tested on: PC-3 [JPC-3]
Summary of the method: as §1

H3255 = tested on: H3255
Summary of the method: as §1

UMC-11 = tested on: UMC-11
Summary of the method: as §1

With `C[C@@H]1CN(CC(=O)Nc2ccc3c(c2)Cc2cccc(-c4cc(=O)cc(N5CCOCC5)o4)c2S3)C[C@H](C)O1` + CC(=O)c1c(C)c2cnc(Nc3ccc(N4CCNCC4)cn3)nc2n(C2CCCC2)c1=O [Palbociclib] (partner 0.5 µM) as the compound, how does the relative viability (LCLC-97TM1; first compound 0.1265 µM) read?
The relative viability was 0.25.

And the relative viability (LCLC-97TM1; first compound 0.4 µM)?
The relative viability was 0.206.

And the relative viability (LCLC-97TM1; first compound 4 µM)?
Its relative viability is 0.246.

What about the relative viability (HCC-78; first compound 0.04 µM) of the same compound?
The relative viability was 0.456.

What about the relative viability (HCC-78; first compound 0.1265 µM) of the same compound?
Its relative viability is 0.458.

What about the relative viability (HCC-78; first compound 0.4 µM) of the same compound?
Its relative viability is 0.48.

What about the relative viability (HCC-78; first compound 4 µM) of the same compound?
Its relative viability is 0.487.

And the relative viability (NCI-H1666; first compound 0.04 µM)?
Its relative viability is 0.584.

And the relative viability (NCI-H1666; first compound 0.1265 µM)?
Its relative viability is 0.616.

What about the relative viability (NCI-H1666; first compound 0.4 µM) of the same compound?
Its relative viability is 0.611.

And the relative viability (NCI-H1666; first compound 4 µM)?
The relative viability was 0.662.

What about the relative viability (HCC-15; first compound 0.04 µM) of the same compound?
Its relative viability is 0.706.

And the relative viability (HCC-15; first compound 0.1265 µM)?
The relative viability was 0.708.

And the relative viability (HCC-15; first compound 0.4 µM)?
Its relative viability is 0.751.

And the relative viability (HCC-15; first compound 4 µM)?
The relative viability was 0.678.

And the relative viability (NCI-H1651; first compound 0.04 µM)?
The relative viability was 0.543.

What about the relative viability (NCI-H1651; first compound 0.1265 µM) of the same compound?
Its relative viability is 0.502.

And the relative viability (NCI-H1651; first compound 0.4 µM)?
Its relative viability is 0.51.

And the relative viability (NCI-H1651; first compound 4 µM)?
The relative viability was 0.527.

And the relative viability (BEN; first compound 0.04 µM)?
The relative viability was 0.513.

And the relative viability (BEN; first compound 0.1265 µM)?
Its relative viability is 0.471.

And the relative viability (BEN; first compound 0.4 µM)?
The relative viability was 0.481.

And the relative viability (BEN; first compound 4 µM)?
Its relative viability is 0.452.

And the relative viability (LK-2; first compound 0.04 µM)?
The relative viability was 0.6.

What about the relative viability (LK-2; first compound 0.1265 µM) of the same compound?
The relative viability was 0.697.

And the relative viability (LK-2; first compound 0.4 µM)?
The relative viability was 0.651.

And the relative viability (LK-2; first compound 4 µM)?
Its relative viability is 0.792.

And the relative viability (NCI-H322M; first compound 0.04 µM)?
Its relative viability is 0.421.

And the relative viability (NCI-H322M; first compound 0.1265 µM)?
The relative viability was 0.475.

And the relative viability (NCI-H322M; first compound 0.4 µM)?
Its relative viability is 0.506.

And the relative viability (NCI-H322M; first compound 4 µM)?
The relative viability was 0.522.

And the relative viability (NCI-H2087; first compound 0.04 µM)?
Its relative viability is 0.213.

What about the relative viability (NCI-H2087; first compound 0.1265 µM) of the same compound?
Its relative viability is 0.253.

What about the relative viability (NCI-H2087; first compound 0.4 µM) of the same compound?
Its relative viability is 0.244.

And the relative viability (NCI-H2087; first compound 4 µM)?
The relative viability was 0.267.

And the relative viability (LU99A; first compound 0.04 µM)?
Its relative viability is 0.387.

What about the relative viability (LU99A; first compound 0.1265 µM) of the same compound?
The relative viability was 0.404.

What about the relative viability (LU99A; first compound 0.4 µM) of the same compound?
The relative viability was 0.449.

And the relative viability (LU99A; first compound 4 µM)?
Its relative viability is 0.445.

And the relative viability (SK-MES-1; first compound 0.04 µM)?
The relative viability was 0.35.

What about the relative viability (SK-MES-1; first compound 0.1265 µM) of the same compound?
Its relative viability is 0.323.

What about the relative viability (SK-MES-1; first compound 0.4 µM) of the same compound?
Its relative viability is 0.309.

What about the relative viability (SK-MES-1; first compound 4 µM) of the same compound?
The relative viability was 0.302.

What about the relative viability (LC-2-ad; first compound 0.04 µM) of the same compound?
Its relative viability is 0.493.

What about the relative viability (LC-2-ad; first compound 0.1265 µM) of the same compound?
The relative viability was 0.465.

What about the relative viability (LC-2-ad; first compound 0.4 µM) of the same compound?
Its relative viability is 0.466.

And the relative viability (LC-2-ad; first compound 4 µM)?
The relative viability was 0.419.

What about the relative viability (NCI-H1944; first compound 0.1265 µM) of the same compound?
The relative viability was 0.343.

What about the relative viability (NCI-H1944; first compound 0.4 µM) of the same compound?
The relative viability was 0.344.

What about the relative viability (NCI-H1944; first compound 4 µM) of the same compound?
The relative viability was 0.354.

What about the relative viability (NCI-H661; first compound 0.04 µM) of the same compound?
Its relative viability is 0.404.

What about the relative viability (NCI-H661; first compound 0.1265 µM) of the same compound?
The relative viability was 0.442.

What about the relative viability (NCI-H661; first compound 0.4 µM) of the same compound?
Its relative viability is 0.387.

What about the relative viability (NCI-H661; first compound 4 µM) of the same compound?
Its relative viability is 0.383.

What about the relative viability (ChaGo-K-1; first compound 0.04 µM) of the same compound?
The relative viability was 0.902.

What about the relative viability (ChaGo-K-1; first compound 0.1265 µM) of the same compound?
The relative viability was 0.924.

And the relative viability (ChaGo-K-1; first compound 0.4 µM)?
The relative viability was 0.925.

What about the relative viability (ChaGo-K-1; first compound 4 µM) of the same compound?
The relative viability was 0.898.

And the relative viability (LXF-289; first compound 0.04 µM)?
The relative viability was 0.616.

What about the relative viability (LXF-289; first compound 0.1265 µM) of the same compound?
Its relative viability is 0.617.

What about the relative viability (LXF-289; first compound 0.4 µM) of the same compound?
Its relative viability is 0.613.

What about the relative viability (LXF-289; first compound 4 µM) of the same compound?
The relative viability was 0.549.

And the relative viability (NCI-H650; first compound 0.04 µM)?
Its relative viability is 0.319.

What about the relative viability (NCI-H650; first compound 0.1265 µM) of the same compound?
The relative viability was 0.389.

What about the relative viability (NCI-H650; first compound 0.4 µM) of the same compound?
Its relative viability is 0.378.

What about the relative viability (NCI-H650; first compound 4 µM) of the same compound?
The relative viability was 0.281.

And the relative viability (NCI-H358; first compound 0.04 µM)?
The relative viability was 0.123.

And the relative viability (NCI-H358; first compound 0.1265 µM)?
The relative viability was 0.132.

What about the relative viability (NCI-H358; first compound 0.4 µM) of the same compound?
The relative viability was 0.12.

And the relative viability (NCI-H358; first compound 4 µM)?
The relative viability was 0.127.

What about the relative viability (NCI-H2342; first compound 0.04 µM) of the same compound?
Its relative viability is 0.525.

And the relative viability (NCI-H2342; first compound 0.1265 µM)?
The relative viability was 0.556.

And the relative viability (NCI-H2342; first compound 0.4 µM)?
Its relative viability is 0.496.

And the relative viability (NCI-H2342; first compound 4 µM)?
Its relative viability is 0.455.

And the relative viability (NCI-H838; first compound 0.04 µM)?
Its relative viability is 0.233.

And the relative viability (NCI-H838; first compound 0.1265 µM)?
Its relative viability is 0.204.

And the relative viability (NCI-H838; first compound 0.4 µM)?
Its relative viability is 0.207.

What about the relative viability (NCI-H838; first compound 4 µM) of the same compound?
The relative viability was 0.179.

And the relative viability (PC-3 [JPC-3]; first compound 0.04 µM)?
Its relative viability is 0.501.

And the relative viability (PC-3 [JPC-3]; first compound 0.1265 µM)?
Its relative viability is 0.515.

And the relative viability (PC-3 [JPC-3]; first compound 0.4 µM)?
The relative viability was 0.535.

And the relative viability (PC-3 [JPC-3]; first compound 4 µM)?
Its relative viability is 0.477.

And the relative viability (H3255; first compound 0.04 µM)?
The relative viability was 0.276.

And the relative viability (H3255; first compound 0.1265 µM)?
The relative viability was 0.345.

And the relative viability (H3255; first compound 0.4 µM)?
The relative viability was 0.268.

What about the relative viability (H3255; first compound 4 µM) of the same compound?
Its relative viability is 0.305.

What about the relative viability (UMC-11; first compound 0.04 µM) of the same compound?
The relative viability was 0.33.

What about the relative viability (UMC-11; first compound 0.1265 µM) of the same compound?
The relative viability was 0.332.

What about the relative viability (UMC-11; first compound 0.4 µM) of the same compound?
Its relative viability is 0.321.

What about the relative viability (UMC-11; first compound 4 µM) of the same compound?
The relative viability was 0.338.
